Data: patent publication US6358948B1 (American Home Products Corporation, priority 1999, dated 2002)
Where “and” joins values, the source holds several entries; their conditions need not be identical. Equal entries are not always repeated.

Tested on: T47D cells
Assay: T47D cell proliferation assay (BrdU incorporation)
Format: cell-based
Conditions: half-maximal increase in BrdU incorporation in T47D cells; individual studies
Experimental: 3. T47D Cell Proliferation Assay
The objective of this assay is the determination of progestational and antiprogestational potency by using a cell proliferation assay in T47D cells. A compound's effect on DNA synthesis in T47D cells is measured.
DMEM:F12 (1:1) (GIBCO, BRL) supplemented with 10% (v/v) fetal bovine serum (not heat-inactivated), 100 U/ml penicillin, […], and 2 mM GlutaMax (GIBCO, BRL).
Minimum Essential Medium (MEM) (#51200-038GIBCO, BRL) phenol red-free supplemented with 0.5% charcoal stripped fetal bovine serum, 100 U/ml penicillin, 200 mg/ml streptomycin, and 2 mM GlutaMax (GIBCO, BRL).
Stock T47 D cells are maintained in growth medium. For BrdU incorporation assay, cells are plated in 96-well plates (Falcon, Becton Dickinson Labware) at 10,000 cells/well in growth medium. […]
At the end of BrdU labeling, the medium is removed and BrdU incorporation is measured using a cell proliferation ELISA kit (#RPN 250, Amersham Life Science) according to manufacturer's instructions. […] Then 25 μl of 1 M sulfuric acid is added to each well to stop color reaction and optical density is read in a plate reader at 450 nm within 5 min.
Square root-transformed data are used for analysis of variance and nonlinear dose response curve fitting for both agonist and antagonist modes. […] EC50 or IC50 values are calculated from the retransformed values. […]

Row | SMILES | EC50
1 | CC(=O)O[C@]1(C(C)=O)CC[C@H]2[C@@H]3C[C@H](C)C4=CC(=O)CC[C@]4(C)[C@H]3CC[C@@]21C [MPA, medroxyprogesterone acetate] | 0.019 nM
2 | C[C@H](O)C(=O)[C@@]1(C)CC[C@H]2[C@@H]3CCC4=CC(=O)CCC4=C3CC[C@@]21C [Trimegestone] | 0.017 nM and 0.014 nM and 0.019 nM
